Marks after values point to notes of the source that are not given here. Blank lines part the entries; values can stand above or below the compound they belong to.
What was measured:
[1] = TEM of nano-aggregates after incubation with caspase-3; type: physicochemical; details: after caspase-3 incubation
Protocol: FIG. 7C is a digital TEM image of nano-aggregates after incubation C-SNAF (50 μM) with recombinant human caspase-3 (4.9×10^−3 U/mL) overnight at 37° C. in caspase-3 buffer; scale bar, 1 μm.
No nano-aggregation was found in either of the control probe solutions after incubation with caspase-3.

[2] = Stability of PET tracers in mouse serum; type: in vitro ADME; details: 1 h incubation, 37° C.
Protocol: To the mouse serum (500 μL) 100 μL (approximately 100 μCi/3.7 MBq) of radioactive sample was added and the mixture was incubated at 37° C. At each time point, 100 μL of sample was taken and after mixing with 100 μL of acetonitrile was centrifuged at 9,400×g for 5 min. The resulting supernatants were collected, and an aliquot of each supernatant (100 μL) was diluted with 100 μL of water and analyzed via the same HPLC method used for quality control (fitted with a highly sensitive positron detector for radioactivity). The percent ratio of intact compound to the total radioactivity on the HPLC chromatogram was calculated as %=[(peak area for intact compound)/(total peak area)]×100.

caspase-3 = target: T1, caspase-3 (Homo sapiens, UniProt P42574); assay: Incubation of PET tracer with recombinant caspase-3, radio-HPLC; type: biochemical; details: within 1 h, in buffer
T1 sequence (P42574 29-175 limits assumed): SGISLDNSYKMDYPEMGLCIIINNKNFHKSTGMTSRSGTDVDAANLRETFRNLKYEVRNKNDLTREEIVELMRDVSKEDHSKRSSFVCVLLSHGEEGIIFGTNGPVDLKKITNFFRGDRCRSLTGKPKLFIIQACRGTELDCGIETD
T1 sequence (P42574 176-277 limits assumed): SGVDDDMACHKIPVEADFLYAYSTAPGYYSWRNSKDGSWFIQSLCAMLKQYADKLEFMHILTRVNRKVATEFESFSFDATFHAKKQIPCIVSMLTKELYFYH
Protocol: To evaluate the activatable PET tracer 1 for caspase-3 detection, it was first incubated with recombinant caspase-3 in buffer.

apoptotic HeLa cells = assay: Cell uptake of tracer 1 in HeLa cells; type: cell-based, human
Protocol: HeLa cells (cultured in DMEM with 10% FBS and 1% ampicillin) were grown in a 6 well plate culture dish for 24 h. The wells were then divided into 3 groups. Group 1 wells were cultured normally for 24 h, then the medium was changed and the cells were cultured for another 24 h. Group 2 and 3 wells were cultured with 2 μM doxorubicin (DOX) for 24 h, then the medium was changed and the cells were cultured for another 24 h, group 2 in normal culture medium without doxorubicin and group 3 in normal culture medium without doxorubicin but together with 50 μM Z-VAD-FMK, a caspase-3 inhibitor.
After 48 h, 10 μCi (0.37 MBq) of 1 were added to all three groups and incubated for additional 4 h. Then the medium was removed, the cells washed 3 times with phosphate buffered saline, and 1 mL of Tryp-LETM Express was added and the cells were left for 1-2 min to allow to detach. The cell/Tryp-LE solution was counted in a gamma counter and the radioactivity was normalized to the protein concentration (determined by comparison with BSA standards in each vial.

HeLa tumor xenograft = assay: PET imaging of HeLa tumor xenograft-bearing nude mice; type: in vivo, mouse; details: for uptake ratio between tumor and muscle (T/M): treated tumors
Protocol: One group of animals was scanned at baseline (before treatment) and 4 days post treatment with 0.2 mg doxorubicin injected into the tumor. On the day of scanning, the animals were moved from their housing area to the PET scanner around 1 h prior to the experiment. They were constrained shortly in a tail veiner and injected intravenously, with 440±97 μCi (16±3 MBq) [^18F]C-SNAT formulation. They were anesthetized with 2% isoflurane shortly before placement in an R4 microPET scanner (Siemens Medical Solutions, USA). The anesthesia were continued with 2% isoflurane doing 5 min of acquisition. Scans using the control tracer 1-D (173±73 μCi/9±4 Mbq in 200 μL formulation) were carried out in a similar manner using two groups (one baseline and one treated) instead of the same animals at baseline and after treatment. The images were reconstructed using a standard 2D reconstruction without attenuation correction.
The reconstructed images were analyzed by making two volumes of interest (VOI), one on the tumor and one located on the left shoulder corresponding to muscle/bone mixture. The percent of injected dose per gram tissue (% ID/g) was calculated in each VOI and the ratio between tumor and muscle uptake was calculated based on this uptake (uptake in tumor/uptake in muscle region). The effect of treatment was calculated as the difference in uptake of [^18F]C-SNAT at baseline and after treatment.
Evaluation of activatable PET tracer 1 and control tracer 1-D for PET imaging of caspase-3 activity in vivo was performed in HeLa tumor xenograft-bearing nude mice. Tumors were implanted and grown for a minimum of 10 d before receiving intratumoral injection of 0.2 mg DOX (20 μL). 1 or 1-D (5-15 MBq/135-405 μCi) was injected through the tail vein for PET imaging 4 d post treatment. Static PET scans (5 min) were performed 65, 125 and 182 mins post tracer injection.

[3] = Ex vivo biodistribution of [18F]C-SNAT; type: in vivo, mouse; details: for Ratio of % ID/g over muscle ± SEM: 2 h post injection
Protocol: Mice were administered [^18F]C-SNAT (100-200 μCi/3.7-7.4 MBq in 100-200 μL of 0.9% saline solution) via tail vein injection and then euthanized by bilateral thoracotomy under anesthesia at 2 h after injection of tracer (n=3). All samples (tumor, heart, whole brain, gallbladder, kidney, liver, lung, muscle, bone, spleen, whole blood) were removed quickly following euthanasia and placed in pre-weighed test tubes. Standard solutions of the tracer were prepared by diluting approximately 100 μCi (3.7 MBq) tracer in 100 mL of water, of which 1 mL of aliquots were used for reference counting.
The test tubes containing tissue samples were weighed and the radioactivity was measured by an automated gamma counter (Cobra Model 5002, Packard, USA) along with the standard solutions.

Membrane Potential = details: cited from earlier work

average diameter of nano-aggregates (TEM) [1]: 174±44 nm
Compound: CC[N+]1=C(C=CC=CC=C2N(CCCCCC(=O)NCCCCC3NC(=O)C4CSC(=N4)c4ccc5cc(ccc5n4)OCCCNC(=O)C4CSC(=N4)c4nc5ccc(cc5s4)NC3=O)c3ccc4c(S(=O)(=O)O)cc(S(=O)(=O)O)cc4c3C2(C)C)C(C)(C)c2c1ccc1c(S(=O)(=O)[O-])cc(S(=O)(=O)O)cc21 (stereo not shown) [C-SNAF-cycl]

intact tracer in mouse serum [2]: 60% | tracer cyclized by recombinant caspase-3 (caspase-3): 90% | Ratio of % ID/g over muscle ± SEM ([3]; Bone): 2.4 ± 1.5 | Ratio of % ID/g over muscle ± SEM ([3]; Brain): 0.5 ± 0.2 | Ratio of % ID/g over muscle ± SEM ([3]; Heart): 4.5 ± 2.4 | Ratio of % ID/g over muscle ± SEM ([3]; Kidney): 124.2 ± 46.6 | Ratio of % ID/g over muscle ± SEM ([3]; Liver): 22.9 ± 9.7 | Ratio of % ID/g over muscle ± SEM ([3]; Lung): 4.1 ± 1.8 | Ratio of % ID/g over muscle ± SEM ([3]; Muscle): 1.0 ± 0.5 | Ratio of % ID/g over muscle ± SEM ([3]; Plasma): 4.0 ± 1.8 | Ratio of % ID/g over muscle ± SEM ([3]; Spleen): 1.7 ± 0.7 | Ratio of % ID/g over muscle ± SEM ([3]; Tumor): 5.6 ± 2.3 | Ratio of % ID/g over muscle ± SEM ([3]; Whole Blood): 5.1 ± 2.4 | crossing of the blood-brain barrier ([3]; low uptake in brain tissue, 120 minutes post injection): could not cross the blood-brain barrier
Compound: CCSSCC(NC(=O)[C@H](CC(=O)O)NC(=O)[C@@H](NC(=O)[C@H](CCC(=O)O)NC(=O)[C@H](CC(=O)O)NC(C)=O)C(C)C)C(=O)NC(Cc1cn(CCOCC[18F])nn1)C(=O)Nc1ccc2nc(C3=N[C@@H](C(=O)NCCCOc4ccc5nc(C#N)ccc5c4)CS3)sc2c1 (stereo partly shown) [[^18F]C-SNAT]
retained 18F activity in Dox-treated cells with caspase-3 inhibitor (apoptotic HeLa cells; Dox 2 μM plus Z-VAD-fmk): 1.3 fold | retained 18F activity in Dox-treated versus non-treated cells (apoptotic HeLa cells; Dox 2 μM, 4 h tracer incubation): 2.2 fold | uptake difference between baseline and treated (HeLa tumor xenograft; 65 min): 0.36±0.15 % ID/g | uptake difference between baseline and treated (HeLa tumor xenograft; 182 min): 0.63±0.11 % ID/g | uptake in tumor (HeLa tumor xenograft; DOX treated, 65 min): 1.17±0.17 % ID/g | uptake in tumor (HeLa tumor xenograft; DOX treated, 182 min): 1.29±0.07 % ID/g | uptake in tumor (HeLa tumor xenograft; baseline, 65 min): 0.81±0.28 % ID/g | uptake in tumor (HeLa tumor xenograft; baseline, 182 min): 0.67±0.24 % ID/g | Target/Background (HeLa tumor xenograft; maximum value at the apoptotic tissue): 7.0 | time course of uptake in apoptotic tumors (HeLa tumor xenograft; mouse, in vivo): trend of increasing uptake over times | % ID/g at target site (HeLa tumor xenograft; mouse, tumor treatment, PET imaging): 1.3 ± 0.1 % ID/g | Treated/Untreated (HeLa tumor xenograft; target uptake ratio between pre and post treatment in same animal): 1.9^b | uptake ratio between tumor and muscle (T/M) (HeLa tumor xenograft; 65 min): 3.30 fold | uptake ratio between tumor and muscle (T/M) (HeLa tumor xenograft; 182 min): 7.00 fold

Compound: CC(CCCCC[18F])(C(=O)O)C(=O)O [[^18F]ML-10]
% ID/g at target site (Membrane Potential; PET imaging, cerebral stroke): 0.3 ± 0.1 % ID/g | Treated/Untreated (Membrane Potential; stroke and non-stroke region in same animal): 2.3^f

From patent US9642922B2, “Caspase-triggered nano-aggregation probes and methods of use” (The Board of Trustees of the Leland Stanford Junior …, priority 2013, dated 2017)
